From patent publication US11229634B2, “Methods for treating gastrointestinal disorders using FXR agonists” (Novartis AG, priority 2016, dated 2022)
Values after ≈ are worked out from the molar mass of the structure shown. “Also recorded” adds a separate entry of the source.

Assays:
FXR = target: T1, FXR (Homo sapiens, UniProt Q96RI1); details: clinical studies in PBC or NASH subjects; cited from earlier work
T1 construct: OCA was tested at doses between 5 mg and 50 mg in PBC subjects or NASH subjects; host or cells: human subjects (PBC, NASH), endogenous receptor
T1 sequence (Q96RI1 1-486): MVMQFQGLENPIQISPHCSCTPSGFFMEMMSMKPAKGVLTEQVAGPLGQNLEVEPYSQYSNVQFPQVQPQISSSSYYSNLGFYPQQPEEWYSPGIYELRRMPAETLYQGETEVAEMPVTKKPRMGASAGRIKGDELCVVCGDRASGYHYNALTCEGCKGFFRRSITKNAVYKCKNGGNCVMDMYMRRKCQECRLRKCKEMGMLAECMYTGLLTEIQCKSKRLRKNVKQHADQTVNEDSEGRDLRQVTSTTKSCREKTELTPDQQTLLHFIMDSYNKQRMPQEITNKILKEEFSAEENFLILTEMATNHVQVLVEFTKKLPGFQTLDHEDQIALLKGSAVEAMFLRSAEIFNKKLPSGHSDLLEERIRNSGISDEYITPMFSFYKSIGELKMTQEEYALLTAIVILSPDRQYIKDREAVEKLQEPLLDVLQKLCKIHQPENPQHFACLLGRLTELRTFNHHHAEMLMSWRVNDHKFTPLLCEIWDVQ

[1] = Food effect (high-fat meal vs fasted) on pharmacokinetics; assay type: in vivo; details: human
Procedure: To avoid variability in drug exposure, it is recommended that throughout the treatment period, patients will be directed to take study drug at home with ˜240 mL (8 ounces) of water in the morning in a fasting state, at least 30 min prior to the first beverage apart from water and 60 min prior to first meal of the day, preferably at the same time of the day.

[2] = Multiple oral dose plasma pharmacokinetics in healthy subjects; assay type: in vivo; details: human
[3] = Estimation of human efficacious dose from rat efficacious exposure and human PK; details: human, plasma, oral, 6 μg; estimated, molar
Procedure: The human efficacy dose was calculated based on the efficacious exposure in the rat ANIT-induced disease model. Since the in vitro potency and protein binding between human and rat were similar, the EC80 exposure in human was assumed to be the same as that in rat (3.05 ng*h/mL),

[4] = Safety and tolerability in healthy subjects; assay type: in vivo, human; details: repeated daily 100 μg; one ALT>ULN, one ALT>3×ULN, one ALT>5×ULN
ANIT-induced cholestasis [5] = test: PK/PD modeling of effective exposure in rat ANIT chronic treatment model; assay type: in vivo; details: drug concentration producing 80% of maximum effect
Procedure: Male Wistar rats were treated with ANIT (0.1% ANIT in chow diet) for 2 weeks. […] The serum samples were collected on day 14 for analysis of biomarkers of hepatobiliary injury (including ALT, AST, bilirubin and bile acids). The PK samples (pre-dose, 0.5, 1, 3, 7, 10 and 24 h, n=3/dose group) were taken on day 13 (at steady-state). AUC0-24 h was determined using Phoenix WinNonlin 6.3 software and the average concentrations were calculated from mean of AUC0-24 h at each dose (divided the AUC0-24 h by 24 h). The mean biomarker data were compared to the PK data (average concentration at each dose) for the modeling. The IC80 was determined using the Inhibitory effect Imax model (effect C=0 at Imax, C=infinity at E0) built in Phoenix WinNonlin 6.3 software. […] Therefore, we chose to use a mean of the IC80 for the four biomarkers (total bilirubin, total bile acids, ALT and AST) as the IC80 for efficacy in this model. […]
The PK samples (pre-dose, 0.5, 1, 3, 7, 10 and 24 h, n=3/dose group) were taken on day 13 (at steady-state). AUC0-24 h was determined using Phoenix WinNonlin 6.3 software and the average concentrations were calculated from mean of AUC0-24 h at each dose (divided the AUC0-24 h by 24 h). […] The IC80 was determined using the Inhibitory effect Imax model (effect C=0 at Imax, C=infinity at E0) built in Phoenix WinNonlin 6.3 software.

ANIT-induced cholestasis [6] = test: Chronic treatment rat ANIT model of cholestasis, serum markers; assay type: in vivo; details: oral dosing 0.01 to 3 mg/kg
Procedure: Rats were treated with alpha-naphthyl-isothiocyanate (ANIT) (0.1% w/w) in food for 3 days prior to treatment with the compound at the indicated doses or with vehicle control (“Veh”). A non-cholestatic control group was fed standard chow diet without ANIT, and serve as the non-cholestatic control animals (“Control”), After […] days of oral dosing, the indicated analyte was measured in serum. LLQ, lower limit of quantitation. Mean±SEM; n=5.

FGF19 = details: single and repeated dosing, human
[7] = Single oral dose plasma pharmacokinetics in healthy subjects; assay type: in vivo; details: dose range 10 μg to 3000 μg, human

| Compound | side effect associated with treatment (FXR) | median Tmax, fasted state ([1]; fasted comparator of food effect) [h] | increase of mean AUCinf with high-fat meal compared to the fasted state [1] | increase of mean Cmax with high-fat meal compared to the fasted state [1] | dose dependence of Cmax and AUC (AUCtau/AUCinf), plasma exposure ([2]; multiple once daily doses, dose range 10 μg to 100 μg) | day by which steady-state was reached ([2]; once daily oral dosing 10-100 μg, trough levels) [days] | Cmax [3] [nM] | subjects with elevation of transaminases (ALT and AST) [4] [subjects] | IC80, total bilirubin (ANIT-induced cholestasis [5]) [ng/mL] | dose from which hepatobiliary injury indicators (AST, ALT, bilirubin, bile acids) improved (ANIT-induced cholestasis [6]) [mg/kg] | FGF19 response to dose (FGF19) | dose dependence of mean Cmax and AUCinf [7] |
| --- | --- | --- | --- | --- | --- | --- | --- | --- | --- | --- | --- | --- |
| CC[C@H]1[C@@H](O)[C@@H]2[C@H](CC[C@]3(C)[C@@H]([C@H](C)CCC(=O)O)CC[C@@H]23)[C@@]2(C)CC[C@@H](O)C[C@@H]12 [OCA, 6α-ethyl-chenodeoxycholic acid] | increased pruritus | – | – | – | – | – | – | – | – | – | – | – |
| O=C(O)c1cc(F)c2nc(N3C4CC[C@H]3CC(OCc3c(-c5ccccc5OC(F)(F)F)noc3C3CC3)C4)sc2c1 (stereo partly drawn) [Compound A, 2-[(1R,3r,5S)-3-({5-cyclopropyl-3-[2-(trifluoromethoxy)phenyl]-1,2-oxazol-4-yl}methoxy)-8-azabicyclo[3.2.1]octan-8-yl]-4-fluoro-1,3-benzothiazole-S-carboxylic acid] | – | 4 | approximately 60% | approximately 60% | approximately dose-proportional increase; also recorded: approximately dose proportional increase | ≤ 4 | ~0.3 | 3 | 0.223 (≈ 0.369 nM) | 0.01 | dose-dependent increases in FGF19 | approximately dose proportional increase |
